Experimental data from patent US11884676B2, “Substituted pyrimido[1,2-b]pyridazines as positive allosteric modulators of the muscarinic acetylcholine receptor M4” (Vanderbilt University, priority 2020, dated 2024).

Target: T1, Human M4 (Homo sapiens, UniProt P08173)
T1 construct: expressed in transfected cells
T1 sequence (P08173 1-479): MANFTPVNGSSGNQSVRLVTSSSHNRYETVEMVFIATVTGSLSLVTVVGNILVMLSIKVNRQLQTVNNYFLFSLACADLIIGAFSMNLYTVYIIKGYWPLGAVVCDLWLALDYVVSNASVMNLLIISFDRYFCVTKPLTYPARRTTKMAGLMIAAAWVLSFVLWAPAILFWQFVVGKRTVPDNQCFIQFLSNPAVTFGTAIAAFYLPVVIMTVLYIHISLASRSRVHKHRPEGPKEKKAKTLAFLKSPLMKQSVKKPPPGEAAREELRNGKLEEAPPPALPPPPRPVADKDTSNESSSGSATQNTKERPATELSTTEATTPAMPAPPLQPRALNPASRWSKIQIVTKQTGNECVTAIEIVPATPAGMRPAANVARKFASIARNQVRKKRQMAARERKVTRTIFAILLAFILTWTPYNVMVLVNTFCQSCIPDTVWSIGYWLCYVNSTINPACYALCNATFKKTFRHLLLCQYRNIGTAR
Assay: mAChR M4 cell-based functional assay (calcium flux, PAM mode)
Details: hM4-Gqi5 CHO-K1 cells; for Emax at 30 µM: CHO-K1, % ACh maximum at 30 μM; for EC50: concentration-dependent increase in the EC20 acetylcholine response
Method: Human and rat M4 cDNAs, along with the chimeric G protein Gqi5, were transfected into Chinese hamster ovary (CHO-K1) cells purchased from the American Type Culture Collection using Lipofectamine2000. hM4-Gqi5 cells were grown in Ham's F-12 medium containing 10% heat-inactivated fetal bovine serum (FBS), 20 mM HEPES, 50 μg/mL G418 sulfate, and 500 μg/mL Hygromycin B. rM4-Gqi5 cells were grown in DMEM containing 10% heat-inactivated FBS, 20 mM HEPES, 400 μg/mL G418 sulfate, and 500 μg/mL Hygromycin B.
For high throughput measurement of agonist-evoked increases in intracellular calcium, CHO-K1 cells stably expressing muscarinic receptors were plated in growth medium lacking G418 and hygromycin at 15,000 cells/20 μL/well in Greiner 384-well black-walled, tissue culture (TC)-treated, clear-bottom plates (VWR). Cells were incubated overnight at 37° C. and 5% CO2. The next day, cells were washed using an ELX 405 (BioTek) with assay buffer; the final volume was then aspirated to 20 μL. Next, 20 μL of a 2.3 μM stock of Fluo-4/acetoxymethyl ester (Invitrogen, Carlsbad, CA), prepared as a 2.3 mM stock in DMSO and mixed in a 1:1 ratio with 10% (w/v) Pluronic F-127 and diluted in assay buffer, was added to the wells and the cell plates were incubated for 50 min at 37° C. and 5% CO2. Dye was removed by washing with the ELX 405 and the final volume was aspirated to 20 μL. Compound master plates were formatted in an 11 point concentration-response curve (CRC) format (1:3 dilutions) in 100% DMSO with a starting concentration of 10 mM using a BRAVO liquid handler (Agilent). Test compound CRCs were then transferred to daughter plates (240 nL) using the Echo acoustic plate reformatter (Labcyte, Sunnyvale, CA) and then diluted into assay buffer (40 μL) to a 2× stock using a Thermo Fisher Combi (Thermo Fisher Scientific, Waltham, MA).
Calcium flux was measured using the Functional Drug Screening System (FDSS) 6000 or 7000 (Hamamatsu Corporation, Tokyo, Japan) as an increase in the fluorescent static ratio. Compounds were applied to cells (20 μL, 2×) using the automated system of the FDSS at 2-4 seconds into the protocol and the data were collected at 1 Hz. At 144 seconds, 10 μL of an EC20 concentration of the muscarinic receptor agonist acetylcholine was added (5×), followed by the addition of 12 μL of an EC80 concentration of acetylcholine at the 230 second time point (5×). Agonist activity was analyzed as a concentration-dependent increase in calcium mobilization upon compound addition. Positive allosteric modulator activity was analyzed as a concentration-dependent increase in the EC20 acetylcholine response. Antagonist activity was analyzed as a concentration-dependent decrease in the EC80 acetylcholine response. Concentration-response curves were generated using a four-parameter logistical equation in XLFit curve fitting software (IDBS, Bridgewater, NJ) for Excel (Microsoft, Redmond, WA) or Prism (GraphPad Software, Inc., San Diego, CA).
Compounds were synthesized as described above. Activity (EC50 and Emax) was determined in the mAChR M4 cell-based functional assay as described above and the data are shown in Table 2. The compound number corresponds to the compound numbers used in Examples 1 to 11 and Tables 1.

Structure (SMILES)	Emax at 30 µM [%]	EC50 [nM]
Cc1cc2nccc(=O)n2nc1N1CC[C@@H](Oc2ccc3c(c2)OCCO3)[C@@H](C)C1 (single isomer, unassigned) [Compound 113, 7-((3R,4S) or (3S,4R))-4-(2,3-dihydrobenzo[b][1,4]dioxin-6-yl)oxy)-3-methylpiperidin-1-yl)-8-methyl-4H-pyrimido[1,2-b]pyridazin-4-one]	96	110
Cc1cc2nccc(=O)n2nc1N1CC[C@@H](Oc2ccc3c(c2)OCCO3)[C@H](C)C1 (single isomer, unassigned) [Compound 114, 7-((3R,4R) or (3S,4S))-4-((2,3-dihydrobenzo[b][1,4]dioxin-6-yl)oxy)-3-methylpiperidin-1-yl)-8-methyl-4H-pyrimido[1,2-b]pyridazin-4-one]	102	160
Cc1cc2nccc(=O)n2nc1N1CC[C@H](Oc2ccc3c(c2)OCCO3)[C@@H](C)C1 (single isomer, unassigned) [Compound 115, 7-((3S,4S) or (3R, 4R))-4-((2,3-dihydrobenzo[b][1,4]dioxin-6-yl)oxy)-3-methylpiperidin-1-yl)-8-methyl-4H-pyrimido[1,2-b]pyridazin-4-one]	78	1560
Cc1cc2nccc(=O)n2nc1N1CC[C@@H](Oc2ccc3c(c2)OCCO3)C[C@H]1C (stereo in doubt) [Compound 106, 7-((2R,4R)-4-((2,3-dihydrobenzo[b][1,4]dioxin-6-yl)oxy)-2-methylpiperidin-1-yl)-8-methyl-4H-pyrimido[1,2-b]pyridazin-4-one]	81	818
Cc1cc2nccc(=O)n2nc1N1CC[C@H](Oc2ccc3c(c2)OCCO3)C[C@H]1C (stereo in doubt) [Compound 107, 7-((2R,4S)-4-((2,3-dihydrobenzo[b][1,4]dioxin-6-yl)oxy)-2-methylpiperidin-1-yl)-8-methyl-4H-pyrimido[1,2-b]pyridazin-4-one]	55	–
[2H]C1([2H])Oc2ccc(OC3CCN(c4nn5c(=O)ccnc5cc4C)CC3)cc2OC1([2H])[2H] [Compound 1, 7-(4-((2,3-Dihydrobenzo[b][1,4]dioxin-6-yl-2,2,3,3-d4)oxy)piperidin-1-yl)-8-methyl-4H-pyrimido[1,2-b]pyridazin-4-one]	91	130
[2H]C1([2H])Oc2ccc(OC3CCN(c4nn5c(=O)c(C)c(C)nc5cc4C)CC3)cc2OC1([2H])[2H] [Compound 4, 7-(4-((2,3-Dihydrobenzo[b][1,4]dioxin-6-yl-2,2,3,3-d4)oxy)piperidin-1-yl)-2,3,8-trimethyl-4H-pyrimido[1,2-b]pyridazin-4-one]	90	36
[2H]C1([2H])Oc2ccc(OC3CCN(c4nn5c(=O)cc(C)nc5c(C)c4C)CC3)cc2OC1([2H])[2H] [Compound 5, 7-(4-((2,3-Dihydrobenzo[b][1,4]dioxin-6-yl-2,2,3,3-d4)oxy)piperidin-1-yl)-2,8,9-trimethyl-4H-pyrimido[1,2-b]pyridazin-4-one]	81	36
[2H]C1([2H])Oc2ccc(OC3CCN(c4nn5c(=O)cc(C(F)(F)F)nc5c(C)c4C)CC3)cc2OC1([2H])[2H] [Compound 7, 7-(4-((2,3-Dihydrobenzo[b][1,4]dioxin-6-yl-2,2,3,3-d4)oxy)piperidin-1-yl)-8,9-dimethyl-2-(trifluoromethyl)-4H-pyrimido[1,2-b]pyridazin-4-one]	93	70
[2H]C1([2H])Oc2ccc(OC3CCN(c4nn5c(=O)cc(C6CC6)nc5cc4C)CC3)cc2OC1([2H])[2H] [Compound 10, 2-Cyclopropyl-7-(4-((2,3-dihydrobenzo[b][1,4]dioxin-6-yl-2,2,3,3-d4)oxy)piperidin-1-yl)-8-methyl-4H-pyrimido[1,2-b]pyridazin-4-one]	73	87
CCc1cc(=O)n2nc(N3CCC(Oc4ccc5c(c4)OCCO5)CC3)c(C)c(C)c2n1 [Compound 11, 7-(4-((2,3-Dihydrobenzo[b][1,4]dioxin-6-yl-2,2,3,3-d4)oxy)piperidin-1-yl)-2-ethyl-8,9-dimethyl-4H-pyrimido[1,2-b]pyridazin-4-one]	99	49
Cc1c(N2CCC(Oc3ccc4c(c3)OCCO4)CC2)nn2c(=O)cc(C(C)C)nc2c1C [Compound 12, 7-(4-((2,3-Dihydrobenzo[b][1,4]dioxin-6-yl)oxy)piperidin-1-yl)-2-isopropyl-8,9-dimethyl-4H-pyrimido[1,2-b]pyridazin-4-one]	103	59

More lines, in order of falling EC50, values ahead:

Emax at 30 µM [%]	EC50 [nM]	Structure (SMILES)
86	30	[2H]C1([2H])Oc2ccc(OC3CCN(c4nn5c(=O)cc(C)nc5cc4C)CC3)cc2OC1([2H])[2H] [Compound 3, 7-(4-((2,3-Dihydrobenzo[b][1,4]dioxin-6-yl-2,2,3,3-d4)oxy)piperidin-1-yl)-2,8-dimethyl-4H-pyrimido[1,2-b]pyridazin-4-one]
96	28	[2H]C1([2H])Oc2ccc(OC3CCN(c4nn5c(=O)cc(C(F)F)nc5c(C)c4C)CC3)cc2OC1([2H])[2H] [Compound 9, 2-(Difluoromethyl)-7-(4-((2,3-dihydrobenzo[b][1,4]dioxin-6-yl-2,2,3,3-d4)oxy)piperidin-1-yl)-8,9-dimethyl-4H-pyrimido[1,2-b]pyridazin-4-one]
100	26	[2H]C1([2H])Oc2ccc(OC3CCN(c4nn5c(=O)ccnc5c(C)c4C)CC3)cc2OC1([2H])[2H] [Compound 2, 7-(4-((2,3-Dihydrobenzo[b][1,4]dioxin-6-yl-2,2,3,3-d4)oxy)piperidin-1-yl)-8,9-dimethyl-4H-pyrimido[1,2-b]pyridazin-4-one]
95	22	COCc1cc(=O)n2nc(N3CCC(Oc4ccc5c(c4)OCCO5)CC3)c(C)c(C)c2n1 [Compound 13, 7-(4-((2,3-Dihydrobenzo[b][1,4]dioxin-6-yl)oxy)piperidin-1-yl)-2-(methoxymethyl)-8,9-dimethyl-4H-pyrimido[1,2-b]pyridazin-4-one]
101	22	[2H]C1([2H])Oc2ccc(OC3CCN(c4nn5c(=O)cc(COC)nc5cc4C)CC3)cc2OC1([2H])[2H] [Compound 14, 7-(4-((2,3-Dihydrobenzo[b][1,4]dioxin-6-yl-2,2,3,3-d4)oxy)piperidin-1-yl)-2-(methoxymethyl)-8-methyl-4H-pyrimido[1,2-b]pyridazin-4-one]
76	19	[2H]C1([2H])Oc2ccc(OC3CCN(c4nn5c(=O)cc(C(F)F)nc5cc4C)CC3)cc2OC1([2H])[2H] [Compound 8, 2-(Difluoromethyl)-7-(4-((2,3-dihydrobenzo[b][1,4]dioxin-6-yl-2,2,3,3-d4)oxy)piperidin-1-yl)-8-methyl-4H-pyrimido[1,2-b]pyridazin-4-one]
91	16	[2H]C1([2H])Oc2ccc(OC3CCN(c4nn5c(=O)cc(C(F)(F)F)nc5cc4C)CC3)cc2OC1([2H])[2H] [Compound 6, 7-(4-((2,3-Dihydrobenzo[b][1,4]dioxin-6-yl-2,2,3,3-d4)oxy)piperidin-1-yl)-8-methyl-2-(trifluoromethyl)-4H-pyrimido[1,2-b]pyridazin-4-one]
